Laboratory results as given in patent US10669255B2, “Pyrrole derivatives” (HUA MEDICINE (SHANGHAI) LTD., priority 2016, dated 2020).
pIC50: −log10 of the molar value.

Target: T1, recombinant rat mGluR5 (Rattus norvegicus, UniProt P31424)
T1 construct: expressed in transfected cells
Assay: Functional calcium flux assay (FLIPR), antagonism of glutamate-evoked [Ca2+]i increase
Type: cell-based
Details: HEK293 cells stably expressing recombinant rat mGluR5; Fluo-8; 15 min incubation of test compound, then submaximal glutamate
Method: Functional Calcium Flux Assay Methodology
For functional assays, HEK293 cells stably expressing recombinant rat mGluR5 were seeded in 384-well plates and dye loaded using Fluo-8. Cells were then washed to remove the un-incorporated dye. Antagonist evaluation was performed following a 15 min incubation of the test compound followed by the addition of submaximal concentration of glutamate. Intracellular calcium ([Ca^2+]i) measurements were performed using a fluorometric imaging plate reader (FLIPR, Molecular Devices). The glutamate-evoked increase in [Ca^2+]i in the presence of the test compounds was compared to the response to glutamate alone (the positive control). Antagonist inhibition curves were fitted with a 4-parameter logistic equation giving IC50 values, and Hill coefficients using an iterative nonlinear curve fitting algorithm.
The tables below provide IC50 data in this assay. In the activity column, A=IC50 >1,000 and ≤5,000 nM; B=IC50>500 and ≤1,000 nM and C=IC50≤500 nM.

T1 sequence (P31424 21-1203): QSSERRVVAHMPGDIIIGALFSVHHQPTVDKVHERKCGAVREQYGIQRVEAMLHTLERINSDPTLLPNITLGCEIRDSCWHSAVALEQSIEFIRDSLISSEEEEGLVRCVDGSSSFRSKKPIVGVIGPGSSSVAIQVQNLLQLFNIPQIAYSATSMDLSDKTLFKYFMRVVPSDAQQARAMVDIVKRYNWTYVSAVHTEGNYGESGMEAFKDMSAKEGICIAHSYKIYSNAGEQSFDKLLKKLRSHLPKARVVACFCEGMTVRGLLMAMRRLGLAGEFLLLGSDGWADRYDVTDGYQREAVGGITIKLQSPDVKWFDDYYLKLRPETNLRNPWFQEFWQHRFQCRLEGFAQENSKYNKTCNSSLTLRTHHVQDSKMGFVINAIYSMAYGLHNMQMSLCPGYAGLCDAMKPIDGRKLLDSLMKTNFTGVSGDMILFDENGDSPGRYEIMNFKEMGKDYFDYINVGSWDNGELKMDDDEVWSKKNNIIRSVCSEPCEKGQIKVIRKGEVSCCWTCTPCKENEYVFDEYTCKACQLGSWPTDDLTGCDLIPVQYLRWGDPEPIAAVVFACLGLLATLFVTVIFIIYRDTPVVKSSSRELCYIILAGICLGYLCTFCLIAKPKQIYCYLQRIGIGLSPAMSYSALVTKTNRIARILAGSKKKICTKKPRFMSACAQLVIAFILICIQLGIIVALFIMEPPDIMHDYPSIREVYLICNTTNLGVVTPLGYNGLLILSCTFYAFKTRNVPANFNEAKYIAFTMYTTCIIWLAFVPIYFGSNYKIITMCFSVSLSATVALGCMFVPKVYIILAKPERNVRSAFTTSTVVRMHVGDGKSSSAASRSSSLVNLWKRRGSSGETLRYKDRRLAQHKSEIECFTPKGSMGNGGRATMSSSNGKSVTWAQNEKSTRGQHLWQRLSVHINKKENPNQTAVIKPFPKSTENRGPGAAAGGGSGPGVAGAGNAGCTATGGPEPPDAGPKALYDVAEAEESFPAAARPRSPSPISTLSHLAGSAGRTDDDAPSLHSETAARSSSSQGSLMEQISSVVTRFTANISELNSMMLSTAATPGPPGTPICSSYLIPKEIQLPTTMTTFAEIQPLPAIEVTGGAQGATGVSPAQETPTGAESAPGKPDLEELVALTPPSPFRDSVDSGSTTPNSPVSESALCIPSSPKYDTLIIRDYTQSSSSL

Row | Compound | pIC50
1 | N#Cc1cc(I)cc(-n2cc(C#Cc3ccccn3)c3ccccc32)c1 [Example Compound 1, 3-iodo-5-(3-(pyridin-2-ylethynyl)-1H-indol-1-yl)benzonitrile] | ≥ 6.30
2 | N#Cc1cc(F)cc(-n2cc(C#Cc3ccccn3)c3ccccc32)c1 [Example Compound 2, 3-fluoro-5-(3-(pyridin-2-ylethynyl)-1H-indol-1-yl)benzonitrile] | ≥ 6.30
3 | Fc1ccc(-n2cc(C#Cc3ccccn3)c3ccccc32)cc1 [Example Compound 3, 1-(4-fluorophenyl)-3-(pyridin-2-ylethynyl)-1H-indole] | ≥ 6.30
4 | Fc1ccc(-n2cc(C#Cc3ncccn3)c3ccccc32)cc1 [Example Compound 4, 1-(4-fluorophenyl)-3-(pyrimidin-2-ylethynyl)-1H-indole] | ≥ 6.30
5 | Cc1cc(C#Cc2ncccn2)c(C)n1-c1ccc(OC(F)(F)F)cc1 [Example Compound 9, 2-((2,5-dimethyl-1-(4-(trifluoromethoxy)phenyl)-1H-pyrrol-3-yl)ethynyl)pyrimidine] | ≥ 6.30

More lines, now with the values ahead:

Row | pIC50 | Compound
6 | ≥ 6.30 | N#Cc1cc(F)cc(-n2cc(F)c(C#Cc3ccccn3)c2)c1 [Example Compound 5, 3-fluoro-5-(3-fluoro-4-(pyridin-2-ylethynyl)-1H-pyrrol-1-yl)benzonitrile]
7 | ≥ 6.30 | N#Cc1cc(F)cc(-n2ccc(C#Cc3ccccn3)c2)c1 [Example Compound 6, 3-fluoro-5-(3-(pyridin-2-ylethynyl)-1H-pyrrol-1-yl)benzonitrile]
8 | ≥ 6.30 | Fc1ccc(-n2ccc(C#Cc3ccccc3)c2)cc1 [Example Compound 7, 1-(4-fluorophenyl)-3-(phenylethynyl)-1H-pyrrole]
9 | ≥ 6.30 | Cc1cc(C#Cc2ccccn2)c(C)n1-c1ccc(OC(F)(F)F)cc1 [Example Compound 8, 2-((2,5-dimethyl-1-(4-(trifluoromethoxy)phenyl)-1H-pyrrol-3-yl)ethynyl)pyridine]
10 | 5.30 to 6.00 | Cc1cc(C#Cc2ccncc2)c(C)n1-c1ccc(OC(F)(F)F)cc1 [Example Compound 10, 4-((2,5-dimethyl-1-(4-(trifluoromethoxy)phenyl)-1H-pyrrol-3-yl)ethynyl)pyridine]
